Measurements reported in patent US20250066338A1, “CERTAIN 3-AZABICYCLO[3.1.0]HEXANES AS GLP-1 RECEPTOR MODULATORS” (AstraZeneca AB, priority 2021, published 2025).

Key:
human GLP-1R receptor = human GLP-1R receptor (Homo sapiens (Human), UniProt P43220, L260F); assay: CHOK1 GLP-1R cAMP Assay; assay type: cell-based; conditions: CHO-K1 cell line stably expressing human GLP-1R; HTRF cAMP; agonist activity
Procedure: A cell line stably expressing the human GLP-1R receptor (NM 002062.5, including the naturally-occurring variant Leu260Phe) in a CHO-K1 (ATCC® CCL-61™) was used for assay.
GLP-1 receptor mediated agonist activity was determined in a cell based assay measuring cyclic adenosine monophosphate (cAMP) levels in cells using Homogeneous Time-Resolved Fluorescence (HTRF) cAMP detection kit (CisBio catalog #62AM4PEC, cAMP Gs Dynamic range kit). The cAMP detection method is based on a competitive immunoassay, in which cAMP produced by the cells and cAMP labeled with the dye d2 compete for binding to a Europium-Cryptate-labeled anti-cAMP antibody. The specific HTRF signal is inversely proportional to the concentration of cAMP.
Compounds were added to individual well in 384 well-assay plates (Greiner #784076) using an Echo (LabCyte) dispenser from 10 mM stocks. Varying concentration of compounds were added to wells, and DMSO was used to normalize each well to a volume of 100 nL. A dose response curve of GLP1(7-36)NH2 (Bachem H-6795) was included in each run. 5 μL of cAMP concentration response standards are applied in specified wells in the assay plates. Cryo-preserved cells are thawed and resuspended in assay buffer pre-heated to 37° C. (20 mM HEPES pH 7.4, lx Hank's Balanced Salt Solution (HBSS, Life Technologies #14065) supplemented with 0.1% (w/v) bovine serum albumin (Sigma, A-7030). Cells were centrifuged at 250*g for 5 min at rt, and resuspended in room tempered assay buffer to a final density of 0.16*10^6 cell/mL, to deliver 800 cells/well. 5 μL of assay buffer with 1 mM 3-isobutyl-1-methylxanthin (IBMX; Sigma cat I-7018) was dispensed per well in assay plates using a multidrop combi (Thermo Scientific) subsequently 5 μL of cell suspension was distributed to relevant wells in the assay using a multidrop dispenser. Assay plates were incubated 20 min at rt.
Detection reagents, Europium-Cryptate-labeled anti-cAMP antibody and cAMP labeled with the dye d2, are diluted in lysis buffer, provided by the manufacturer. 5 μL of each detection reagent is supplemented to each assay well using a multidrop dispenser. Assay plates are incubated in the dark for at least one h. The HTRF signal is measured using the HTRF module (excitation: 337 nm, emission A: 665 nm and emission B: 620 nm) in Pherastar FSX (BMG Labtech).
Raw data were converted to pM cAMP using the cAMP standard curve included in each run. Converted data were further analyzed in Genedata Screener (Genedata) and EC50 determinations were made from agonist dose-response curves analyzed with a curve fitting program using a 4-parameter logistic dose response equation (Equation y=A+((B−A)/1+((C/x)^D))) where A is no stimulation, B is full stimulation, C is the EC50 and D is the Hill slope). The percent effect was determined relative to a saturating concentration of a full GLP-1R agonist (GLP1(7-36)NH2 has 100% effect in this assay setup).

[1] = target: GLP-1R in EndoC-βH1 cells (Homo sapiens (Human), UniProt P43220); assay: EndoC cAMP Accumulation Assay; assay type: cell-based; conditions: EndoC-βH1 human pancreatic beta cell line; HTRF cAMP accumulation
Excerpt: EndoC cAMP Accumulation Assay
A HTRF cAMP assay (cAMP Gs dynamic kit; CisoBio Cat #62AM4PEJ) was used to identify agonists of GLP-1R in a pancreatic insulinoma cell line (EndoC-βH1). […] EndoC-βH1 cells have detectable GLP-1R messenger ribonucleic acid (mRNA) as detected by quantitative polymerase chain reaction (qPCR). […] The EndoC-βH1 cell line is a valid model of human beta cells and applicable for screenings to identify novel drug target candidates (Mol. Metab., 2018, 8, 144-157). CisBio HTRF cAMP kits are based on a competitive immunoassay using cryptate-labelled anti-cAMP antibody and d2-labeled cAMP. The detection kit is intended for the direct quantitative determination of cAMP. The specific signal (i.e. energy transfer) is inversely proportional to the concentration of cAMP in the standard or sample. Test compounds (10 mM in DMSO) were diluted into assay buffer (HBSS (Sigma #H8264) supplemented with 25 mM HEPES (Gibco #15630, pH 7.4), 0.1% BSA (Sigma #A3059) and 0.5 mM IBMX (Sigma #17018) included fresh on the day of the assay) into 96 well U-bottom plates (Greiner #650201). Diluted compounds were transferred to ECHO source polypropylene plates (Labcyte #P-05525) and dose response curves were dispensed acoustically using ECHO 550 into black shallow-well u-bottom 384-well HTRF Assay Plates (Corning 4514).
Cryovials of EndoC-H1 (supplied at 1×10e^7 cells/vial) were used directly for screening. The cryovials and were removed from N2 (1) and thawed rapidly in a 37° C. water bath. The cells were resuspended in assay buffer and centrifuged at 300 g for 5 min. Cells were resuspended in assay buffer at the appropriate concentration, typically at 12e5 cells per mL (3000 cells per well, dependent on cell batch) and 2.5 μL diluted cells were added to all wells of destination plate by Multidrop combi reagent dispenser (Thermofisher). The plates were incubated at rt for 30 min. The assay was stopped by adding 2.5 μL anti-cAMP cryptate solution to all wells and 2.5 μL cAMP-d2 solution (both diluted 1:20 in lysis buffer) to columns 1-22 by Combi drop. A volume of 2.5 μL cAMP-d2 solution was added to wells E23 to P24 and 2.5 μL lysis buffer added to wells A23 to D24 by multichannel pipette. The plates were incubated at rt for 1 h and read on an Envision plate reader using excitation wavelength of 320 nm and emission of […] and 660 nm.
Raw data from Envision is converted to % DeltaF according to the manufacturer's instructions. Dose response curves are analysed via 4-Parameter Logistical Analysis and assay plate Z′ values obtained. Samples are graphed as percentage (%) activation plots compared to GIP (1-42, Bachem H-5645) with assay window defined by negative control as basal cell cAMP levels and positive control are defined by maximum GIP (82.5 nM) signal. GLP1 (7-36 amide, Bachem H-6795) dose response curve was included on all plates.

GLP-1R in EndoC-βH1 cells, sequence (P43220 24-463): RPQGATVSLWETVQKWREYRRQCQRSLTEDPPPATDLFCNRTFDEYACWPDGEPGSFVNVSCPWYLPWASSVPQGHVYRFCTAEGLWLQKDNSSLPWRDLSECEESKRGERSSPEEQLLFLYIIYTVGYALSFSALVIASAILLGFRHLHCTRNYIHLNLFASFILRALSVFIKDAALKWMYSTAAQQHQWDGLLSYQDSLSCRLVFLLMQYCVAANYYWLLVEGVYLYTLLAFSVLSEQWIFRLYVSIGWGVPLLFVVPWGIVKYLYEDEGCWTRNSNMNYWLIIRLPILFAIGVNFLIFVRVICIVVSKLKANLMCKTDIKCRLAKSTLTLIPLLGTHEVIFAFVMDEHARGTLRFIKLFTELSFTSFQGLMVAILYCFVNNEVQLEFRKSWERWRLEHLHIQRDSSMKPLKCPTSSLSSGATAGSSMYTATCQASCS
human GLP-1R receptor, sequence (P43220 24-463 L260F): as the sequence (P43220 24-463) above, with L237F counted along it

CCn1cncc1Cn1c(CN2C[C@@H]3[C@H](C2)[C@H]3c2cccc(OCc3ccc(Cl)cc3F)n2)nc2ccc(C(=O)O)cc21 [Example 12, 2-(((1R,5S,6r)-6-(6-((4-Chloro-2-fluorobenzyl)oxy)pyridin-2-yl)-3-azabicyclo[3.1.0]hexan-3-yl)methyl)-1-((1-ethyl-1H-imidazol-5-yl)methyl)-1H-benzo[d]imidazole-6-carboxylic acid] showed an EC50 (human GLP-1R receptor) of 97 nM and an EC50 [1] of 150 nM.
CCn1cncc1Cn1c(CN2C[C@@H]3[C@H](C2)[C@H]3c2cccc(OCc3ccc(Cl)cc3F)n2)nc2c(OC)cc(C(=O)O)cc21 [Example 14, 2-(((1R,5S,6r)-6-(6-((4-Chloro-2-fluorobenzyl)oxy)pyridin-2-yl)-3-azabicyclo[3.1.0]hexan-3-yl)methyl)-1-((1-ethyl-1H-imidazol-5-yl)methyl)-4-methoxy-1H-benzo[d]imidazole-6-carboxylic acid] was tested, and the EC50 (human GLP-1R receptor) was 30 nM and the EC50 [1] was 7.4 nM.
In the case of N#Cc1ccc(COc2ccc(F)c([C@H]3[C@@H]4CN(Cc5nc6ccc(C(=O)O)cc6n5C[C@@H]5CCO5)C[C@@H]43)n2)c(F)c1 [Example 2, 2-(((1R,5S,6S)-6-(6-((4-Cyano-2-fluorobenzyl)oxy)-3-fluoropyridin-2-yl)-3-azabicyclo[3.1.0]hexan-3-yl)methyl)-1-(((S)-oxetan-2-yl)methyl)-1H-benzo[d]imidazole-6-carboxylic acid], the EC50 (human GLP-1R receptor) is reported as 30 nM and the EC50 [1] is reported as 26 nM.
In the case of COc1cc(C(=O)O)cc2c1nc(CN1C[C@@H]3[C@H](C1)[C@H]3c1cccc(OCc3cc(C)ccc3F)n1)n2C[C@@H]1CCO1 [Example 21, 2-(((1R,5S,6S)-6-(6-((2-Fluoro-5-methylbenzyl)oxy)pyridin-2-yl)-3-azabicyclo[3.1.0]hexan-3-yl)methyl)-4-methoxy-1-(((S)-oxetan-2-yl)methyl)-1H-benzo[d]imidazole-6-carboxylic acid], the EC50 (human GLP-1R receptor) is reported as 44 nM and the EC50 [1] is reported as 1100 nM.
With O=C(O)c1ccc2nc(CN3C[C@@H]4[C@H](C3)[C@H]4c3nc(OCc4ccc(Cl)cc4F)ccc3F)n(C[C@@H]3CCO3)c2c1 [Example 16, 2-(((1R,5S,6S)-6-(6-((4-Chloro-2-fluorobenzyl)oxy)-3-fluoropyridin-2-yl)-3-azabicyclo[3.1.0]hexan-3-yl)methyl)-1-(((S)-oxetan-2-yl)methyl)-1H-benzo[d]imidazole-6-carboxylic acid] the EC50 (human GLP-1R receptor) was 47 nM and the EC50 [1] was 24 nM.
With COc1cc(C(=O)O)cc2c1nc(CN1C[C@@H]3[C@H](C1)[C@H]3c1nc(OCc3ccc(C#N)cc3F)ccc1F)n2C[C@@H]1CCO1 [Example 1, 2-(((1R,5S,6S)-6-(6-((4-Cyano-2-fluorobenzyl)oxy)-3-fluoropyridin-2-yl)-3-azabicyclo[3.1.0]hexan-3-yl)methyl)-4-methoxy-1-(((S)-oxetan-2-yl)methyl)-1H-benzo[d]imidazole-6-carboxylic acid] the EC50 (human GLP-1R receptor) was 7.7 nM and the EC50 [1] was 5 nM.
With COc1cc(C(=O)O)cc2c1nc(CN1C[C@@H]3[C@H](C1)[C@H]3c1cccc(OCc3ccc(C#N)cc3F)n1)n2C[C@@H]1CCO1 [Example 4, 2-(((1R,5S,6S)-6-(6-((4-Cyano-2-fluorobenzyl)oxy)pyridin-2-yl)-3-azabicyclo[3.1.0]hexan-3-yl)methyl)-4-methoxy-1-(((S)-oxetan-2-yl)methyl)-1H-benzo[d]imidazole-6-carboxylic acid] the EC50 (human GLP-1R receptor) was 12 nM and the EC50 [1] was 5.8 nM.
Compound O=C(O)c1cc(F)c2nc(CN3C[C@@H]4[C@H](C3)[C@H]4c3cccc(OCc4ccc(Cl)cc4F)n3)n(C[C@@H]3CCO3)c2c1 [Example 15, 2-(((1R,5S,6S)-6-(6-((4-Chloro-2-fluorobenzyl)oxy)pyridin-2-yl)-3-azabicyclo[3.1.0]hexan-3-yl)methyl)-4-fluoro-1-(((S)-oxetan-2-yl)methyl)-1H-benzo[d]imidazole-6-carboxylic acid] has an EC50 (human GLP-1R receptor) of 57 nM and an EC50 [1] of 28 nM.
Work on COc1cc(C(=O)O)cc2c1nc(CN1C[C@@H]3[C@H](C1)[C@H]3c1cccc(OCc3ccccc3OC(F)F)n1)n2C[C@@H]1CCO1 [Example 22, 2-(((1R,5S,6S)-6-(6-((2-(Difluoromethoxy)benzyl)oxy)pyridin-2-yl)-3-azabicyclo[3.1.0]hexan-3-yl)methyl)-4-methoxy-1-(((S)-oxetan-2-yl)methyl)-1H-benzo[d]imidazole-6-carboxylic acid] yielded an EC50 (human GLP-1R receptor) of 49 nM and an EC50 [1] of 34 nM.
Compound COc1cc(C(=O)O)cc2c1nc(CN1C[C@@H]3[C@H](C1)[C@H]3c1cccc(OCc3ccc(F)cc3F)n1)n2C[C@@H]1CCO1 [Example 20, 2-(((1R,5S,6S)-6-(6-((2,4-Difluorobenzyl)oxy)pyridin-2-yl)-3-azabicyclo[3.1.0]hexan-3-yl)methyl)-4-methoxy-1-(((S)-oxetan-2-yl)methyl)-1H-benzo[d]imidazole-6-carboxylic acid] has an EC50 (human GLP-1R receptor) of 62 nM and an EC50 [1] of 43 nM.
COc1cc(C(=O)O)cc2c1nc(CN1C[C@@H]3[C@H](C1)[C@H]3c1cccc(OCc3ccc(C)cc3)n1)n2C[C@@H]1CCO1 [Example 23, 4-Methoxy-2-(((1R,5S,6S)-6-(6-((4-methylbenzyl)oxy)pyridin-2-yl)-3-azabicyclo[3.1.0]hexan-3-yl)methyl)-1-(((S)-oxetan-2-yl)methyl)-1H-benzo[d]imidazole-6-carboxylic acid] showed an EC50 (human GLP-1R receptor) of 74 nM and an EC50 [1] of 31 nM.
In the case of N#Cc1ccc(COc2cccc([C@H]3[C@@H]4CN(Cc5nc6ccc(C(=O)O)cc6n5C[C@@H]5CCCO5)C[C@@H]43)n2)c(F)c1 [Example 6, 2-(((1R,5S,6S)-6-(6-((4-Cyano-2-fluorobenzyl)oxy)pyridin-2-yl)-3-azabicyclo[3.1.0]hexan-3-yl)methyl)-1-(((S)-tetrahydrofuran-2-yl)methyl)-1H-benzo[d]imidazole-6-carboxylic acid], the EC50 [1] is reported as 290 nM.
